Experimental data published in publication PMC10408569, “Recruitment of hexahydroquinoline as anticancer scaffold targeting inhibition of wild and mutants EGFR (EGFR^WT, EGFR^T790M, and EGFR^L858R)” (Journal of Enzyme Inhibition and Medicinal Chemistry, 2023).

Assays:
[1] = Cytotoxic effects in vitro on normal lung cells; assay type: cell-based; conditions: IMR-90 normal lung fibroblast cells; human normal lung fibroblast (IMR-90); read-out: IC50, cytotoxicity towards human normal cells IMR-90
HOP-92 cells [2] = experiment: Annexin V-FITC apoptosis assay; assay type: cell-based, human; conditions: for total apoptosis, fold more than control / total apoptosis percentage: HOP-92; for early apoptosis ratio / late apoptosis ratio: HOP-92, 10 µM, 24 h; for early apoptosis ratio: control (DMSO) 0.70%; for late apoptosis ratio: control (DMSO) 1.80%; for total apoptosis percentage: control 2.5%
Description: The most important mechanism chemotherapeutics eradicate cancer cells is apoptosis induction[78]^,[79]. Cellular alterations brought on by apoptosis include the translocation of phosphatidylserine (PS) from the inside to the outside via the plasma membrane[80]^,[81]. PS can be detected outside the plasma membrane using a sensitive probe called Annexin V, which can bind to PS[82]^,[83]. […] HOP-92 cells were also overexpressed in NSC lung cancer. Therefore, they were selected to be subjected to apoptosis assay. HOP-92 cells were stained with AV/PI for 24 h at a mixed molar concentration of 10 µM with compounds 10c and 10d (Figure 7(A,B)). […] These findings supported that the cytotoxic effects of compounds 10c and 10d were due to the apoptotic mechanism rather than the necrotic pathway. The results of compounds 10c and 10d compared to the control sample are presented as a bar chart (Figure 7(D)).
[…] Annexin V-FITC apoptosis assay
A protein known as annexin V-fluorescein isothiocyanate (Annexin V-FITC) binds phosphatidyl serine PS, which can be seen by staining. They used Annexin V-FITC and a propidium iodide counterstain (PI). Apoptosis was first induced by incubating cells in 96-microwell plates at a density of […] with the addition of the test substance (100 µL) for 24 hours. Then, 1-5 × 10^5 cells were centrifuged and resuspended in 500 µL of binding buffer. PI (5 µL) and Annexin V - FITC (5 µL) were added, and the mixture was incubated at room temperature for 5 minutes in the dark. An nexin -V -FITC binding was analyzed using A FACS C alibur flow cytometer (BD Biosciences, San Jose, CA). […]

HOP-92 cells [3] = experiment: Cell cycle analysis by flow cytometry; assay type: cell-based, human; conditions: HOP-92, 10 µM, 24 h; for percentage of cells at the pre-G1 phase: control 3.05%; for cells at G2/M: control 12.98%; for proportion of cells in the S phase: control 31.46%; for percentage of cells in the G0/G1: control 55.38%
Protocol: Antitumor drugs can cause cell cycle arrest and death via activating signalling pathways[85]^,[86]. Cell growth in various cell cycle phases is measured by flow cytometry[87]^,[88]. […] We have treated HOP-92 cells with 10 µM of compounds 10c and 10d to incubate for 24 h. […] According to these observations, Compounds 10c and 10d induce apoptosis in NSC lung cancer, HOP-92, cells via cell cycle arrest at the pre-G1 phase as well as the G2/M phase (Figure 8(D)). […]
[…] Cellular mechanistic analysis
The examination of the cell cycle was done using flow cytometry. The test compound was applied to HOP-92 cells before they were cultured for 24 hours at 37 °C, 5% CO 2. After gathering and centrifuging the cell pellets, they were fixed in 70% (v/v) ethanol unde r the ice for 15 minutes. Pellets were once more collected and then incubated in a solution of 50 µg/mL propidium iodide (PI) and […]
0.1 mg/mL RNAse. […]

NCI-H23 = experiment: NCI-60 anticancer screening (SRB); assay type: cell-based; conditions: Homo sapiens, five doses 0.01-100 µM, 48 h

Structure (SMILES)	IC50 [1] [µM]	total apoptosis, fold more than control (HOP-92 cells [2])	early apoptosis ratio (HOP-92 cells [2]) [%]	late apoptosis ratio (HOP-92 cells [2]) [%]	total apoptosis percentage (HOP-92 cells [2]) [%]	percentage of cells at the pre-G1 phase (HOP-92 cells [3]) [%]	cells at G2/M (HOP-92 cells [3]) [%]	proportion of cells in the S phase (HOP-92 cells [3]) [%]	percentage of cells in the G0/G1 (HOP-92 cells [3]) [%]	GI50 (NCI-H23) [µM]
CCOC(=O)C1=C(N)N(c2ccc(Cl)cc2)C2=C(C(=O)CC(C)(C)C2)C1c1ccc(Cl)cc1Cl (racemic) [10d, (±)-Ethyl 2-amino-1–(4-chorophenyl)-4–(2,4-dichlorophenyl)-7,7-dimethyl-5-oxo-1-phenyl-1,4,5,6,7,8-hexahydroquinoline-3-carboxylate]	55.5 ± 2.57	~8 fold	7.68	12.15	19.83	21.55	49.21	25.42	25.37	
CCOC(=O)C1=C(N)N(c2ccccc2)C2=C(C(=O)CC(C)(C)C2)C1c1ccc(Cl)cc1Cl (racemic) [10c, (±)-Ethyl 2-amino-4–(2,4-dichlorophenyl)-7,7-dimethyl-5-oxo-1-phenyl-1,4,5,6,7,8-hexahydroquinoline-3-carboxylate]	62.2 ± 3.14	approximately 10 fold	8.74	15.44	24.18	25.82	34.07	20.18	45.75	2.51
